From article PMC4890002, “The CebE/MsiK Transporter is a Doorway to the Cello-oligosaccharide-mediated Induction of Streptomyces scabies Pathogenicity” (Scientific Reports, 2016)
Like-named read-outs stand apart in the source and are kept apart here.

Experiments:
CebR (SCAB57761) = molecular target: T1, CebR (SCAB57761) (Streptomyces scabiei, UniProt C9Z452); assay: EMSA: loss of DNA binding of pure CebR-His6 preincubated with the sugar; assay type: biochemical
T1 construct: gene SCAB_57761; CebR-His6 (pure)

[1] = molecular target: T2, CebE (SCAB57751, CebE^scab) (Streptomyces scabiei, UniProt C9Z451); assay: intrinsic tryptophan fluorescence titration of purified protein; assay type: binding
T2 construct: gene SCAB_57751; N-terminally 6His-tagged CebE without its first 44 codons (signal peptide and membrane-anchoring lipopeptide), produced in E. coli
T2 sequence (C9Z451 45-454): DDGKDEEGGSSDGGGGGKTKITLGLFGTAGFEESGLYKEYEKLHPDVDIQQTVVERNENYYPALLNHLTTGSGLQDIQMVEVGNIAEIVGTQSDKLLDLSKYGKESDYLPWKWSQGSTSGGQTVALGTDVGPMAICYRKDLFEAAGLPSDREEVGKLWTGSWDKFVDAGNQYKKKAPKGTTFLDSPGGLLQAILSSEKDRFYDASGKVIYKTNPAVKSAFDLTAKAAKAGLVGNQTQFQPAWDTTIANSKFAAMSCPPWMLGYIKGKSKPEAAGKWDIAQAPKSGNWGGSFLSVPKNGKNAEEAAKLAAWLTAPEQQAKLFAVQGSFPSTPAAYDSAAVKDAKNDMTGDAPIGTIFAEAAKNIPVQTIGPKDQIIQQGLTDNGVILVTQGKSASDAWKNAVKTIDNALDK

CebR = CebR (UniProt C9Z452 1-352); assay: EMSA; CebR 0-480 nM; no oligosaccharide; EMSA as in earlier work (buffer, salt, pH not given); 15 pmol Cy5 probe and 150 pmol CebR-6His in Methods, legend gives 6 nM probe (panel D) and CebR 0-480 nM (panel C); 1% agarose gel run at room temperature; conditions: protein: recombinant; tags: His6 (printed as CebR-6His / CebR-His6); chain copies: 2; blunt

`OC[C@H]1O[C@@H](O[C@H]2[C@H](O)[C@@H](O)[C@H](O[C@H]3[C@H](O)[C@@H](O)C(O)O[C@@H]3CO)O[C@@H]2CO)[C@H](O)[C@@H](O)[C@@H]1O` (some centres unmarked) [(Glc)3, cellotriose] was tested, and the “EMSA: loss of DNA binding of pure CebR-His6 preincubated with the sugar” value (CebR (SCAB57761)) was “EMSAs demonstrating that cellobiose and cellotriose are able to inhibit the DNA-binding ability of CebR” and the Kd ([1]; read-out: Kd) was 2 nM.

With `OC[C@H]1O[C@@H](O[C@H]2[C@H](O)[C@@H](O)C(O)O[C@@H]2CO)[C@H](O)[C@@H](O)[C@@H]1O` (some centres unmarked) [(Glc)2, cellobiose] the “EMSA: loss of DNA binding of pure CebR-His6 preincubated with the sugar” value (CebR (SCAB57761)) was “EMSAs demonstrating that cellobiose and cellotriose are able to inhibit the DNA-binding ability of CebR” and the Kd [1] was 14 nM.

B1: cbsbglC probe (dsDNA)
DNA 1: CGACCACCAATGGGAGCGCTTCCATGCCTGAACC
DNA 2: GGTTCAGGCATGGAAGCGCTCCCATTGGTGGTCG
B1: binds (CebR).
